According to US20160024083A1, “COMPOUNDS AND METHODS FOR TREATING CANCERS” (HEALTH RESEARCH, INC., priority 2013, published 2016):

How the values were obtained:
Assay type in all cases: cell-based
CWR22R = assay: cells
Hela = assay: Inhibition of growth / toxicity in non-target Hela cells
Procedure: (§1) This example provides a table (below) of the compounds of the present disclosure and their activity towards four different cell lines (i.e., CWR22R, HeLa, PC3, and MDA-MB-231). The IC50 for inhibition of growth is divided into 4 categories: A<1 μM, B 1-5 μM, C 5-20 μM, D>20 μM.
(§2) All compounds were tested for toxicity using 4 cells lines, target cells—CWR22R and non-target cells, Hela, PC3 and MDA-MB-231 (FIGS. 1A-F).

PC3 = assay: Inhibition of growth / toxicity in non-target PC3 cells; settings: castration resistant prostate cancer, AR−
Procedure: as §1, §2

MDA-MB-231 = assay: Inhibition of growth / toxicity in non-target MDA-MB-231 cells; settings: Homo sapiens
Procedure: as §1, §2

LNCaP = assay: Sensitivity to growth inhibition, LNCaP; settings: castration resistant prostate cancer, AR+
C4-2 = assay: Sensitivity to growth inhibition, C4-2; settings: castration resistant prostate cancer, AR+
VCaP = assay: Sensitivity to growth inhibition, VCaP; settings: castration resistant prostate cancer, Armut
Du145 = assay: Sensitivity to growth inhibition, Du145; settings: castration resistant prostate cancer, AR−
PPC1 = assay: Sensitivity to growth inhibition, PPC1; settings: castration resistant prostate cancer, AR−
HT1080 = assay: Sensitivity to growth inhibition, HT1080; settings: fibrosarcoma AR−
MRC5 = assay: Sensitivity to growth inhibition, MRC5; settings: normal fibroblasts, AR−
PANC1 = assay: Sensitivity to growth inhibition, PANC1; settings: pancreatic adenocarcinoma, AR−
MiaPaca = assay: Sensitivity to growth inhibition, MiaPaca; settings: pancreatic adenocarcinoma, AR−
RCC45 = assay: Sensitivity to growth inhibition, RCC45; settings: renal cell carcinoma, AR−
SKRC45 = assay: Sensitivity to growth inhibition, SKRC45; settings: renal cell carcinoma, AR−
ACHN = assay: Sensitivity to growth inhibition, ACHN; settings: renal cell carcinoma, AR−
NKE = assay: Sensitivity to growth inhibition, NKE; settings: normal kidney, AR−
HepG2 = assay: Sensitivity to growth inhibition, HepG2; settings: hepatocellular carcinoma, AR +
Hep3B = assay: Sensitivity to growth inhibition, Hep3B; settings: hepatocellular carcinoma, AR +
normal hepatocytes = assay: Sensitivity to growth inhibition, normal hepatocytes
HMEC = assay: Sensitivity to growth inhibition, HMEC; settings: normal breast
MCF10A = assay: Sensitivity to growth inhibition, MCF10A; settings: mammary gland epithelium
AU565 = assay: Sensitivity to growth inhibition, AU565; settings: Luminal breast carcinoma, AR+
ZR7530 = assay: Sensitivity to growth inhibition, ZR7530; settings: Luminal breast carcinoma, AR+
ZR751 = assay: Sensitivity to growth inhibition, ZR751; settings: Luminal breast carcinoma, AR+
BT474 = assay: Sensitivity to growth inhibition, BT474; settings: Luminal breast carcinoma, AR+
MDAMB415 = assay: Sensitivity to growth inhibition, MDAMB415; settings: Luminal breast carcinoma, AR+
MDAMB453 = assay: Sensitivity to growth inhibition, MDAMB453; settings: Luminal breast carcinoma, AR+
T47D = assay: Sensitivity to growth inhibition, T47D; settings: Luminal breast carcinoma, AR+
MCF7 = assay: Sensitivity to growth inhibition, MCF7; settings: Luminal breast carcinoma, AR+
SUM185PE = assay: Sensitivity to growth inhibition, SUM185PE; settings: Luminal breast carcinoma, AR+
HCC1419 = assay: Sensitivity to growth inhibition, HCC1419; settings: Luminal breast carcinoma, AR+
UACC893 = assay: Sensitivity to growth inhibition, UACC893; settings: Luminal breast carcinoma, AR+
CAMA1 = assay: Sensitivity to growth inhibition, CAMA1; settings: Luminal breast carcinoma, AR+
HCC202 = assay: Sensitivity to growth inhibition, HCC202; settings: Luminal breast carcinoma, AR−
EFM192A = assay: Sensitivity to growth inhibition, EFM192A; settings: Luminal breast carcinoma, AR−

CCCn1c2ccccc2c2cc(C(C)=O)ccc21 [Compound 1-3, 1-(9-propyl-9H-carbazol-3-yl)ethanone]
Compound 1-3 sensitivity (CWR22R; CWR22R, castration resistant prostate cancer, AR+): S
IC50 (CWR22R; Homo sapiens, 22Rv1, CWR22R, read-out: IC50 for inhibition of growth): < 1 µM
Compound 1-3 sensitivity (Hela; Hela, cervix adenocarcinoma, AR−): R
IC50 (Hela; Homo sapiens, HeLa): > 20 µM
Compound 1-3 sensitivity (PC3): R
IC50 (MDA-MB-231): > 20 µM
Compound 1-3 sensitivity (LNCaP): S
Compound 1-3 sensitivity (C4-2): S
Compound 1-3 sensitivity (VCaP): R
Compound 1-3 sensitivity (Du145): R
Compound 1-3 sensitivity (PPC1): R
Compound 1-3 sensitivity (HT1080): R
Compound 1-3 sensitivity (MRC5): R
Compound 1-3 sensitivity (PANC1): R
Compound 1-3 sensitivity (MiaPaca): R
Compound 1-3 sensitivity (RCC45): R
Compound 1-3 sensitivity (SKRC45): R
Compound 1-3 sensitivity (ACHN): R
Compound 1-3 sensitivity (NKE): R
Compound 1-3 sensitivity (HepG2): S
Compound 1-3 sensitivity (Hep3B): S
Compound 1-3 sensitivity (normal hepatocytes): R
Compound 1-3 sensitivity (HMEC): R
Compound 1-3 sensitivity (MCF10A): R
Compound 1-3 sensitivity (AU565): S
Compound 1-3 sensitivity (ZR7530): S
Compound 1-3 sensitivity (ZR751): S
Compound 1-3 sensitivity (BT474): S
Compound 1-3 sensitivity (MDAMB415): S
Compound 1-3 sensitivity (MDAMB453): S
Compound 1-3 sensitivity (T47D): S
Compound 1-3 sensitivity (MCF7): S
Compound 1-3 sensitivity (SUM185PE): S
Compound 1-3 sensitivity (HCC1419): R
Compound 1-3 sensitivity (UACC893): R
Compound 1-3 sensitivity (CAMA1): R
Compound 1-3 sensitivity (HCC202): S
Compound 1-3 sensitivity (EFM192A): S
